How the values were obtained:
[1] = tested on: DU-145 cells; test: MTT cell viability assay, DU-145; assay type: cell-based; settings: Homo sapiens, DU-145, 48 h, read-out: Cell growth % at 10 µM, DU-145
Method: (§1) The cell lines were obtained from the American Type Culture Collection (ATCC). Five tumor cell lines (MDA-MB-231, MCF-7, HCT116, HTB-54, and DU-145) and two non-tumorigenic cells (184B5 and BEAS-2B) were grown in RPMI 1640 medium (Gibco), and the HT-29 tumor cell line was grown in McCoy’s medium. Both mediums were supplemented with 10% fetal bovine serum (FBS; Gibco) and 1% antibiotics (10.00 units/mL penicillin and 10.00 μg/mL streptomycin; Gibco). Cells were preserved in tissue culture flasks at 37 °C and 5% CO2. The culture medium was replaced every three days.
(§2) The effect of each compound on cell viability was tested using the MTT assay. […] Selected compounds were then tested at seven different concentrations (0.5–100 μM) in MCF-7, HCT116, HT-29, HTB-54, 184B5 and BEAS-2B cells. Cells were seeded at 10^4 per well onto flat-bottomed 96-well culture plates. They were treated with either DMSO or increasing concentration of the corresponding compound for 48 h. Then, they were incubated with 20 μL of 3-(4,5-dimethylthiazol-2-yl)-2,5-diphenyltetrazolium bromide (MTT) (2 mg /mL stock; Aldrich) for 2,5 h and analyzed for their ability to generate a purple formazan dye. These formazan crystals were dissolved in 50 μL of DMSO. The absorbance was measured at a wavelength of 550 nm and the ratio of viable cells was calculated.
(§3) Results are expressed as cell viability % at 10 μM. Selectivity index were calculated as the ratio of the IC50 values determined for the non-malignant and the tumor cells in breast (IC50 (184B5)/IC50 (MCF-7)) and lung (IC50 (BEAS-2B)/IC50 (HTB-54)) cell lines. Data were obtained from at least three independent experiments performed in triplicates.

[2] = tested on: MCF-7 cells; test: MTT cell viability assay, MCF-7; assay type: cell-based; settings: for IC50: Homo sapiens, MCF7, MTT, 48 h; for SI (breast): IC50 (184B5)/IC50 (MCF-7)
Method: as §1, §2, §3

[3] = tested on: BEAS-2B cells; test: MTT cell viability assay, BEAS-2B (non-tumorigenic); assay type: cell-based; settings: Homo sapiens, 48 h, nonmalignant bronchial epithelium
Method: as §1, §2, §3

[4] = tested on: HTB-54, HT-29, HCT116 and MCF-7 cancer cell lines; test: MTT IC50, all tested cancer cell lines; assay type: cell-based; settings: 48 h
Method: as §1
as §2, with “calculated. […]” for “calculated.”

[5] = tested on: NCI-H322M (non-small cell lung); test: NCI-60 Five-Dose assay, NCI-H322M; assay type: cell-based; settings: Homo sapiens, 48 h
Method: (§4) Compounds 14a and 17a were submitted to the Developmental Therapeutics Program (DTP) of National Cancer Institute (NCI). Cytotoxicity activity was evaluated by performing One-Dose screening (10^−5 M) against a panel of 60 human tumor cell lines. […] Cells grew in the RPMI 1640 medium containing 5% fetal bovine serum and 2 mM L-glutamine and were inoculated into 96-well microtiter plates in 100 μL at plating densities ranging from 5.000 to 40.000 cells/well. The microtiter plates inoculated with cells were incubated at 37 °C, in 5% humidified CO2 for 24 h prior to addition of experimental drugs. Then, experimental drugs were added, and the microtiter plates were incubated for 48 h. The protocol is available on https://dtp.cancer.gov/discovery_development/nci-60/methodology.htm accessed on 31 December 2022.

[6] = tested on: SNB-19 (CNS); test: NCI-60 Five-Dose assay, SNB-19; assay type: cell-based; settings: Homo sapiens, 48 h
Method: as §4, with “Cytotoxicity activity was evaluated by performing One-Dose screening (10^−5 M) against a panel of 60 human tumor cell lines.” left out

[7] = tested on: SK-MEL-5 (melanoma); test: NCI-60 Five-Dose assay, SK-MEL-5; assay type: cell-based; settings: Homo sapiens, 48 h
Method: as §4, with “Cytotoxicity activity was evaluated by performing One-Dose screening (10^−5 M) against a panel of 60 human tumor cell lines.” left out

[8] = tested on: melanoma and ovarian cancer cell lines; test: NCI-60 Five-Dose assay, melanoma and ovarian lines; assay type: cell-based, human
Method: as §4, with “Cytotoxicity activity was evaluated by performing One-Dose screening (10^−5 M) against a panel of 60 human tumor cell lines.” left out

[9] = biological target: T1, AChE (Rattus norvegicus, UniProt P37136); test: AChE inhibition by Ellman's method (rat frontal cortex homogenate); assay type: biochemical
T1 construct: from tissue; host or cells: frontal cortex of male Wistar rats (crude homogenate)
T1 sequence (P37136 32-614): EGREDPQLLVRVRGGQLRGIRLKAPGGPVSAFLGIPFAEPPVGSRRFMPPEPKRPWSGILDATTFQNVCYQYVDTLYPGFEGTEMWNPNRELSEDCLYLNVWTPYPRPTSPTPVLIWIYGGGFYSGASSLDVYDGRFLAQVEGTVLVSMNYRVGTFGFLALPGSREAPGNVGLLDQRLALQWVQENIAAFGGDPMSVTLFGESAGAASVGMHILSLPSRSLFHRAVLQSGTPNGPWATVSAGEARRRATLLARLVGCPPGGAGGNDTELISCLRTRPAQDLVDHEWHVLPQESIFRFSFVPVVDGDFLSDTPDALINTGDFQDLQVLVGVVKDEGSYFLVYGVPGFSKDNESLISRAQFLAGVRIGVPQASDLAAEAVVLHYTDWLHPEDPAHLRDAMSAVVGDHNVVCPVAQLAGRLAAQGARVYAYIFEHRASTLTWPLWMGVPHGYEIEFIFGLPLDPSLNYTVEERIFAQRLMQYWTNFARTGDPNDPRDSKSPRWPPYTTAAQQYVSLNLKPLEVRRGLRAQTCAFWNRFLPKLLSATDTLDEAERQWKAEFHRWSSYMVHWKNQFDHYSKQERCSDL
Method: Frontal cortex tissue obtained from male Wistar rats was homogenized in 39 volumes of 75 mM sodium phosphate buffer (pH 7.4). A mixture of 260 μL containing the compounds assessed, acetylthiocholine iodide and 5 μL tissue homogenate was incubated for 8 min. The reaction was then terminated by adding 50 μL 3% (w/v) sodium dodecyl sulphate followed by 50 μL 0.2% (w/v) 5,5′-dithio-bis(2-nitrobenzoic) acid to produce the yellow anion of 5-thio-2-nitro-benzoic-acid. The extent of the color production was measured spectrophotometrically at 405 nm using Multiskan Ex (Thermo Electron Corporation). […] Results are expressed as the mean ± SD and each experiment was repeated three times.

Structure (SMILES)	viability at 10 µM [1]	IC50 [2]	SI (breast) [2]	IC50 [3]	IC50 [4]	GI50 [5]	GI50 [6]	GI50 [7]	LD50 [8]	IC50 [9]	% AChE Inhibition ([9]; at 10^−6 M, Ellman's method)	inhibition at 1 µM ([9]; at 10^−6 M, Ellman's method)
C=CC[Se]C(=O)c1ccccc1OC(C)=O [Compound 14a, 2-(allylselanylcarbonyl)phenylacetate]	16.9 ± 8.6%	9900 ± 900 nM	1.0	7100 ± 2400 nM	< 10000 nM	340 nM	490 nM	1900 nM	below 9.2 µM	900 ± 200 nM	43.5 ± 2.6%	43.5%
C=CC[Se]C(=O)Cc1c(C)n(C(=O)c2ccc(Cl)cc2)c2ccc(OC)cc12 [Compound 17a, Se-allyl 2-[1-(4-chlorobenzoyl)-5-methoxy-2-methyl-1H-indol-3-yl]ethaneselenoate]	16.3 ± 8.4%	9800 ± 300 nM	1.4	6300 ± 2300 nM	< 10000 nM	420 nM	660 nM	1700 nM	below 9.2 µM			19.2 ± 8.3%

— publication PMC9854712 (Antioxidants, 2023)
